Read-outs that look alike come from different tables or passages of the source.
Tests used:
[1] = bovine, in vivo
[2] = bovine, in vivo; remark: listed apart in the source

- P4 concentration in the blood stream after decrease [1]: 0.2 to 0.6 ng/mL
- P4 concentration in the blood stream, achieved and maintained [1]: 2.0 to 3.0 ng/mL
- P4 concentration in the blood stream after decrease [2]: 1.0-1.5 ng per ml
- P4 concentration in the blood stream, achieved within 12 hours and maintained [2]: 2.0 to 3.0 ng/mL
Structure (SMILES): CC(=O)[C@H]1CC[C@H]2[C@@H]3CCC4=CC(=O)CC[C@]4(C)[C@H]3CC[C@]12C [P4, progesterone]
